Results published in the supplement of paper PMC10307832.

Experiments:
Assay in all cases: relative viability (nuclei count vs DMSO), 5 days (fraction); higher = more cells survive
ALW-II-49-7 + Crizotinib = compound: Cc1ccc(C(=O)Nc2cccc(C(F)(F)F)c2)cc1Nc1cncc(C(N)=O)c1 [ALW-II-49-7] + C[C@@H](Oc1cc(-c2cnn(C3CCNCC3)c2)cnc1N)c1c(Cl)ccc(F)c1Cl [Crizotinib] (partner 1 µM)
Outline: (§1)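 After 5 days of treatment, lung cancer cells in 1536-well plates were fixed and stained in a single step (final 0.05% Triton X-100, 1% formaldehyde, 1 ug/ml Hoechst) and their nuclei counted on 4× images. Treatment had been applied by pin tool the day after seeding as one drug alone or as a fixed anchor-drug dose with five library-drug doses (not always all listed) in √10 steps. Relative viability is the nuclei count of treated wells divided by that of vehicle wells, and values are medians of duplicate plates.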

Dasatinib + Luminespib = compound: Cc1nc(Nc2ncc(C(=O)Nc3c(C)cccc3Cl)s2)cc(N2CCN(CCO)CC2)n1 [Dasatinib] + CCNC(=O)c1noc(-c2cc(C(C)C)c(O)cc2O)c1-c1ccc(CN2CCOCC2)cc1 [Luminespib] (partner 0.01 µM)
Outline: as §1

Dasatinib + Alpelisib = compound: Cc1nc(Nc2ncc(C(=O)Nc3c(C)cccc3Cl)s2)cc(N2CCN(CCO)CC2)n1 [Dasatinib] + Cc1nc(NC(=O)N2CCC[C@H]2C(N)=O)sc1-c1ccnc(C(C)(C)C(F)(F)F)c1 [Alpelisib] (partner 2 µM)
Outline: as §1

Dasatinib + Phenformin = compound: Cc1nc(Nc2ncc(C(=O)Nc3c(C)cccc3Cl)s2)cc(N2CCN(CCO)CC2)n1 [Dasatinib] + N=C(N)NC(=N)NCCc1ccccc1 [Phenformin] (partner 250 µM)
Outline: as §1

## NCI-H1734
ALW-II-49-7 + Crizotinib; first compound 0.08 µM
  relative viability: 0.787
ALW-II-49-7 + Crizotinib; first compound 0.253 µM
  relative viability: 0.642
ALW-II-49-7 + Crizotinib; first compound 0.8 µM
  relative viability: 0.614
ALW-II-49-7 + Crizotinib; first compound 2.53 µM
  relative viability: 0.762
ALW-II-49-7 + Crizotinib; first compound 8 µM
  relative viability: 0.651
Dasatinib + Luminespib; first compound 0.005 µM
  relative viability: 0.185
Dasatinib + Luminespib; first compound 0.01581 µM
  relative viability: 0.191
Dasatinib + Luminespib; first compound 0.05 µM
  relative viability: 0.159
Dasatinib + Luminespib; first compound 0.1581 µM
  relative viability: 0.167
Dasatinib + Luminespib; first compound 0.5 µM
  relative viability: 0.156
Dasatinib + Alpelisib; first compound 0.005 µM
  relative viability: 0.553
Dasatinib + Alpelisib; first compound 0.01581 µM
  relative viability: 0.477
Dasatinib + Alpelisib; first compound 0.05 µM
  relative viability: 0.469
Dasatinib + Alpelisib; first compound 0.1581 µM
  relative viability: 0.346
Dasatinib + Alpelisib; first compound 0.5 µM
  relative viability: 0.278
Dasatinib + Phenformin; first compound 0.005 µM
  relative viability: 0.314
Dasatinib + Phenformin; first compound 0.01581 µM
  relative viability: 0.328
Dasatinib + Phenformin; first compound 0.05 µM
  relative viability: 0.288
Dasatinib + Phenformin; first compound 0.1581 µM
  relative viability: 0.249
Dasatinib + Phenformin; first compound 0.5 µM
  relative viability: 0.235

## NCI-H1755
ALW-II-49-7 + Crizotinib; first compound 0.08 µM
  relative viability: 0.917
ALW-II-49-7 + Crizotinib; first compound 0.253 µM
  relative viability: 0.859
ALW-II-49-7 + Crizotinib; first compound 0.8 µM
  relative viability: 0.753
ALW-II-49-7 + Crizotinib; first compound 2.53 µM
  relative viability: 0.79
ALW-II-49-7 + Crizotinib; first compound 8 µM
  relative viability: 0.69
Dasatinib + Luminespib; first compound 0.005 µM
  relative viability: 0.522
Dasatinib + Luminespib; first compound 0.01581 µM
  relative viability: 0.301
Dasatinib + Luminespib; first compound 0.05 µM
  relative viability: 0.375
Dasatinib + Luminespib; first compound 0.1581 µM
  relative viability: 0.303
Dasatinib + Luminespib; first compound 0.5 µM
  relative viability: 0.16
Dasatinib + Alpelisib; first compound 0.005 µM
  relative viability: 0.775
Dasatinib + Alpelisib; first compound 0.01581 µM
  relative viability: 0.602
Dasatinib + Alpelisib; first compound 0.05 µM
  relative viability: 0.437
Dasatinib + Alpelisib; first compound 0.1581 µM
  relative viability: 0.275
Dasatinib + Alpelisib; first compound 0.5 µM
  relative viability: 0.137
Dasatinib + Phenformin; first compound 0.005 µM
  relative viability: 0.477
Dasatinib + Phenformin; first compound 0.01581 µM
  relative viability: 0.46
Dasatinib + Phenformin; first compound 0.05 µM
  relative viability: 0.423
Dasatinib + Phenformin; first compound 0.1581 µM
  relative viability: 0.352
Dasatinib + Phenformin; first compound 0.5 µM
  relative viability: 0.218

## NCI-H1792
ALW-II-49-7 + Crizotinib; first compound 0.08 µM
  relative viability: 0.795
ALW-II-49-7 + Crizotinib; first compound 0.253 µM
  relative viability: 0.866
ALW-II-49-7 + Crizotinib; first compound 0.8 µM
  relative viability: 0.819
ALW-II-49-7 + Crizotinib; first compound 2.53 µM
  relative viability: 0.827
ALW-II-49-7 + Crizotinib; first compound 8 µM
  relative viability: 0.878
Dasatinib + Luminespib; first compound 0.005 µM
  relative viability: 0.467
Dasatinib + Luminespib; first compound 0.01581 µM
  relative viability: 0.306
Dasatinib + Luminespib; first compound 0.05 µM
  relative viability: 0.244
Dasatinib + Luminespib; first compound 0.1581 µM
  relative viability: 0.249
Dasatinib + Luminespib; first compound 0.5 µM
  relative viability: 0.2
Dasatinib + Alpelisib; first compound 0.005 µM
  relative viability: 0.73
Dasatinib + Alpelisib; first compound 0.01581 µM
  relative viability: 0.431
Dasatinib + Alpelisib; first compound 0.05 µM
  relative viability: 0.532
Dasatinib + Alpelisib; first compound 0.1581 µM
  relative viability: 0.389
Dasatinib + Alpelisib; first compound 0.5 µM
  relative viability: 0.153
Dasatinib + Phenformin; first compound 0.005 µM
  relative viability: 0.198
Dasatinib + Phenformin; first compound 0.01581 µM
  relative viability: 0.394
Dasatinib + Phenformin; first compound 0.05 µM
  relative viability: 0.415
Dasatinib + Phenformin; first compound 0.1581 µM
  relative viability: 0.135
Dasatinib + Phenformin; first compound 0.5 µM
  relative viability: 0.0671

## NCI-H1915
ALW-II-49-7 + Crizotinib; first compound 0.08 µM
  relative viability: 0.896
ALW-II-49-7 + Crizotinib; first compound 0.253 µM
  relative viability: 0.863
ALW-II-49-7 + Crizotinib; first compound 0.8 µM
  relative viability: 0.828
ALW-II-49-7 + Crizotinib; first compound 2.53 µM
  relative viability: 0.682
ALW-II-49-7 + Crizotinib; first compound 8 µM
  relative viability: 0.572
Dasatinib + Luminespib; first compound 0.005 µM
  relative viability: 0.818
Dasatinib + Luminespib; first compound 0.01581 µM
  relative viability: 0.601
Dasatinib + Luminespib; first compound 0.05 µM
  relative viability: 0.673
Dasatinib + Luminespib; first compound 0.1581 µM
  relative viability: 0.208
Dasatinib + Luminespib; first compound 0.5 µM
  relative viability: 0.149
Dasatinib + Alpelisib; first compound 0.005 µM
  relative viability: 1.01
Dasatinib + Alpelisib; first compound 0.01581 µM
  relative viability: 0.979
Dasatinib + Alpelisib; first compound 0.05 µM
  relative viability: 0.933
Dasatinib + Alpelisib; first compound 0.1581 µM
  relative viability: 0.395
Dasatinib + Alpelisib; first compound 0.5 µM
  relative viability: 0.311
Dasatinib + Phenformin; first compound 0.005 µM
  relative viability: 0.339
Dasatinib + Phenformin; first compound 0.01581 µM
  relative viability: 0.313
Dasatinib + Phenformin; first compound 0.05 µM
  relative viability: 0.266
Dasatinib + Phenformin; first compound 0.1581 µM
  relative viability: 0.17
Dasatinib + Phenformin; first compound 0.5 µM
  relative viability: 0.164

## NCI-H1944
ALW-II-49-7 + Crizotinib; first compound 0.08 µM
  relative viability: 1.14
ALW-II-49-7 + Crizotinib; first compound 0.253 µM
  relative viability: 0.981
ALW-II-49-7 + Crizotinib; first compound 0.8 µM
  relative viability: 1.06
ALW-II-49-7 + Crizotinib; first compound 2.53 µM
  relative viability: 1.09
ALW-II-49-7 + Crizotinib; first compound 8 µM
  relative viability: 1.12
Dasatinib + Luminespib; first compound 0.005 µM
  relative viability: 0.73
Dasatinib + Luminespib; first compound 0.01581 µM
  relative viability: 0.625
Dasatinib + Luminespib; first compound 0.05 µM
  relative viability: 0.609
Dasatinib + Luminespib; first compound 0.1581 µM
  relative viability: 0.448
Dasatinib + Luminespib; first compound 0.5 µM
  relative viability: 0.129
Dasatinib + Alpelisib; first compound 0.005 µM
  relative viability: 0.781
Dasatinib + Alpelisib; first compound 0.01581 µM
  relative viability: 0.725
Dasatinib + Alpelisib; first compound 0.05 µM
  relative viability: 0.575
Dasatinib + Alpelisib; first compound 0.1581 µM
  relative viability: 0.289
Dasatinib + Alpelisib; first compound 0.5 µM
  relative viability: 0.203
Dasatinib + Phenformin; first compound 0.005 µM
  relative viability: 0.185
Dasatinib + Phenformin; first compound 0.01581 µM
  relative viability: 0.149
Dasatinib + Phenformin; first compound 0.05 µM
  relative viability: 0.15
Dasatinib + Phenformin; first compound 0.1581 µM
  relative viability: 0.154
Dasatinib + Phenformin; first compound 0.5 µM
  relative viability: 0.123

## NCI-H1975
ALW-II-49-7 + Crizotinib; first compound 0.08 µM
  relative viability: 0.838
ALW-II-49-7 + Crizotinib; first compound 0.253 µM
  relative viability: 1.04
ALW-II-49-7 + Crizotinib; first compound 0.8 µM
  relative viability: 0.852
ALW-II-49-7 + Crizotinib; first compound 2.53 µM
  relative viability: 0.912
ALW-II-49-7 + Crizotinib; first compound 8 µM
  relative viability: 0.893
Dasatinib + Luminespib; first compound 0.005 µM
  relative viability: 0.177
Dasatinib + Luminespib; first compound 0.01581 µM
  relative viability: 0.212
Dasatinib + Luminespib; first compound 0.05 µM
  relative viability: 0.155
Dasatinib + Luminespib; first compound 0.1581 µM
  relative viability: 0.178
Dasatinib + Luminespib; first compound 0.5 µM
  relative viability: 0.139
Dasatinib + Alpelisib; first compound 0.005 µM
  relative viability: 0.579
Dasatinib + Alpelisib; first compound 0.01581 µM
  relative viability: 0.437
Dasatinib + Alpelisib; first compound 0.05 µM
  relative viability: 0.361
Dasatinib + Alpelisib; first compound 0.1581 µM
  relative viability: 0.21
Dasatinib + Alpelisib; first compound 0.5 µM
  relative viability: 0.199
Dasatinib + Phenformin; first compound 0.005 µM
  relative viability: 0.362
Dasatinib + Phenformin; first compound 0.01581 µM
  relative viability: 0.347
Dasatinib + Phenformin; first compound 0.05 µM
  relative viability: 0.348
Dasatinib + Phenformin; first compound 0.1581 µM
  relative viability: 0.257
Dasatinib + Phenformin; first compound 0.5 µM
  relative viability: 0.188

## NCI-H1993
ALW-II-49-7 + Crizotinib; first compound 0.08 µM
  relative viability: 0.744
ALW-II-49-7 + Crizotinib; first compound 0.253 µM
  relative viability: 1.01
ALW-II-49-7 + Crizotinib; first compound 0.8 µM
  relative viability: 0.884
ALW-II-49-7 + Crizotinib; first compound 2.53 µM
  relative viability: 1.06
ALW-II-49-7 + Crizotinib; first compound 8 µM
  relative viability: 1.06
Dasatinib + Luminespib; first compound 0.005 µM
  relative viability: 0.883
Dasatinib + Luminespib; first compound 0.01581 µM
  relative viability: 0.598
Dasatinib + Luminespib; first compound 0.05 µM
  relative viability: 0.971
Dasatinib + Luminespib; first compound 0.1581 µM
  relative viability: 0.432
Dasatinib + Luminespib; first compound 0.5 µM
  relative viability: 0.543
Dasatinib + Alpelisib; first compound 0.005 µM
  relative viability: 0.702
Dasatinib + Alpelisib; first compound 0.01581 µM
  relative viability: 0.66
Dasatinib + Alpelisib; first compound 0.05 µM
  relative viability: 0.653
Dasatinib + Alpelisib; first compound 0.1581 µM
  relative viability: 0.521
Dasatinib + Alpelisib; first compound 0.5 µM
  relative viability: 0.587
Dasatinib + Phenformin; first compound 0.005 µM
  relative viability: 0.416
Dasatinib + Phenformin; first compound 0.01581 µM
  relative viability: 0.487
Dasatinib + Phenformin; first compound 0.05 µM
  relative viability: 0.473
Dasatinib + Phenformin; first compound 0.1581 µM
  relative viability: 0.525
Dasatinib + Phenformin; first compound 0.5 µM
  relative viability: 0.554

## NCI-H2009
ALW-II-49-7 + Crizotinib; first compound 0.08 µM
  relative viability: 1.02
ALW-II-49-7 + Crizotinib; first compound 0.253 µM
  relative viability: 1.02
ALW-II-49-7 + Crizotinib; first compound 0.8 µM
  relative viability: 0.964
ALW-II-49-7 + Crizotinib; first compound 2.53 µM
  relative viability: 0.835
ALW-II-49-7 + Crizotinib; first compound 8 µM
  relative viability: 0.729
Dasatinib + Luminespib; first compound 0.005 µM
  relative viability: 1.05
Dasatinib + Luminespib; first compound 0.01581 µM
  relative viability: 1.02
Dasatinib + Luminespib; first compound 0.05 µM
  relative viability: 1.1
Dasatinib + Luminespib; first compound 0.1581 µM
  relative viability: 0.605
Dasatinib + Luminespib; first compound 0.5 µM
  relative viability: 0.168
Dasatinib + Alpelisib; first compound 0.005 µM
  relative viability: 1.15
Dasatinib + Alpelisib; first compound 0.01581 µM
  relative viability: 0.956
Dasatinib + Alpelisib; first compound 0.05 µM
  relative viability: 1.04
Dasatinib + Alpelisib; first compound 0.1581 µM
  relative viability: 0.88
Dasatinib + Alpelisib; first compound 0.5 µM
  relative viability: 0.204
Dasatinib + Phenformin; first compound 0.005 µM
  relative viability: 0.554
Dasatinib + Phenformin; first compound 0.01581 µM
  relative viability: 0.47
Dasatinib + Phenformin; first compound 0.05 µM
  relative viability: 0.366
Dasatinib + Phenformin; first compound 0.1581 µM
  relative viability: 0.206
Dasatinib + Phenformin; first compound 0.5 µM
  relative viability: 0.187
